Laboratory results published in patent publication US20130280187A1, “Compositions and Methods for Improving the Appearance of Facial Pores” (THE PROCTER & GAMBLE COMPANY, priority 2012, published 2013).
“And” between values parts separate entries of the source, which are not always exact repeats. Equal values may be shown once.

Experiments:
hyalauronic acid = assay: In vitro skin biomarker test, hyalauronic acid ELISA in MatTek human skin equivalent; format: cell-based; conditions: 24 hours after treatment, Glyco-Repair 3% topical, TGF-b 2 ng/mL in media
Procedure: (§1) The model used in the test is a MatTek™ brand human skin equivalent available from the MatTek Corporation, which is a full thickness culture system that emulates normal human skin properties and function. The MatTek™ brand skin model contains a three-dimensional, highly differentiated human epidermis with 8-12 cell layers including basal, spinous, granular and stratum corneum layers. The epidermis is grown above a human dermal fibroblast-containing collagen matrix. The skin model is configured to permit the topical application of test materials to the stratum corneum surface of the model. The skin model cultures are supplied in 24-well plate. Each well of the plate includes a snap-well fitting and the skin culture in a media-supplemented agarose gel.
(§2) Prior to testing, the skin model cultures are examined for visual defects and equilibrated overnight at 37° C., 5% CO2, and 95% RH. The skin cultures were transferred to fresh 24-well plates by removing the snap-well fitting along with the skin culture and placing it in a well of the new plate. […]
(§3) Twenty-four hours after treatment, the skin cultures were removed from the incubator and visually inspected for defects (e.g., to see if media leaked up through the culture insert). […] The supernatant was collected and analyzed with a Micro BCA kit to quantitate protein concentration. […]

procollagen I = assay: In vitro skin biomarker test, procollagen I ELISA in MatTek human skin equivalent; format: cell-based; conditions: average of cultures, 24 hours after treatment; Glyco-Repair 3% topical, TGF-b 2 ng/mL in media
Procedure: as §1, §2, §3

transforming growth factor beta [TGF-b] was tested, and the “Avg (normalized protein, hyalauronic acid)” value (hyalauronic acid; average of cultures) was 2.8, the HA (hyalauronic acid; single skin cultures) was 562 ng/mL and 480 ng/mL and 598 ng/mL and 545 ng/mL and 568 ng/mL and the “Avg Normalized Protein (procollagen I)” value (procollagen I) was 29.8.
